Measured values published in article PMC4521150, “Discovery of Novel Inhibitors and Fluorescent Probe Targeting NAMPT” (Scientific Reports, 2015).

Biological target: T1, recombinant human NAMPT (Homo sapiens, UniProt P43490)
T1 construct: His tag (N); made in house; host or cells: E. coli BL21-CodonPlus (DE3)-RIL, pET21a+ vector
Assay: HTS / fixed-concentration NAMPT activity screen (fluorometric)
Assay type: biochemical
Settings: 20 μM compound; analogues of the 46 non-fluorescent inhibitors
Source text: Using our previously established high throughput screening (HTS) platform and recombinant human NAMPT[14][15], we performed a HTS on a chemical library containing 30000 small-molecules (Chemdiv, CA, USA). Our HTS targeting NAMPT was developed based on a fluorometric method for NAMPT activity assay by measuring the fluorescence of nicotinamide mononucleotide (NMN) derivative resulting from the NAMPT enzymatic product NMN through simple chemical reactions (Fig. 1A). The 30000 compounds were dissolved with dimethyl sulfoxide (DMSO); most of compounds were soluble at 10 mM stock solution (94.1%), some compounds insoluble at 10 mM were soluble at 2.5 mM stock solution (4.4%), and the remaining compounds insoluble at 2.5 mM (1.5%) were diluted further during HTS experiments (Fig. 1B). To guarantee the quality of screening, S/N ratio, CV and Z’ factors were monitored throughout the screenings, and all three indices met the requirements of HTS (Fig. 1C–E). After a primary screen and a secondary screen of all compounds at 20 μM, 242 compounds were selected as the hits of NAMPT inhibitors (NAMPT activity < 40%), and the hit rate was ~0.8% (Fig. 1F). […] All these 55 compounds were not reported as NAMPT inhibitors previously. Among the 55 compounds, we noted 46 compounds were non-fluorescent and 9 compounds were fluorescent (Fig. 1F). These fluorescent and non-fluorescent compounds were further studied separately.
HTS was performed using our previously reported method. 0.5 μl stock of each compound (1 mM DMSO stock) was transferred to a 96-well PCR plate for screening. In the primary screening, 5 ng NAMPT in 20 μl reaction buffer [0.4 mM phosphoribosylpyrophosphate (PRPP, Sigma), 2 mM ATP, 0.02% BSA, 2 mM DTT, 12 mM MgCl2 and 50 mM Tris-HCl (pH = 7.5)] was added into each well, the plate was incubated at 37 °C for 5 min, then 4.5 μl substrate of NAM was added to initiate the enzyme reaction, resulting in a final concentration of 2% DMSO, 2 μg/ml NAMPT, 0.2 μM NAM and 20 μM compound. After reacting at 37 °C for 15 min, the enzyme reaction was terminated by heating at 95 °C for 1 min and cooling in an ice bath. The product of NMN was detected through the following approach: after adding 10 μl 20% acetophenone in DMSO and 10 μl 2 M KOH into each well, the mixture was vortex-mixed and kept in ice bath for 2 min. Then 45 μl 88% formic acid was added and the mixture was incubated at 37 °C for 10 min. Finally, 85 μl mixtures in each well were transferred into a flat-bottom 96-well black plate (Greiner), and the fluorescence (F) was measured using a Tecan Infinity M200 plate reader (Tecan Group Ltd.) by setting the excitation and emission wavelength to 382 nm and 445 nm respectively. The last row of each 96-well plate includes six wells of background controls and six wells of reference controls. The relative enzyme activity (Activity%) regulated by specific compound was calculated according to equation (1):
F0 was the averaged fluorescence of six background controls, representing zero activity from a simulated enzyme reaction with only NAMPT but no NAM and compound; F100% was the averaged fluorescence of six reference controls, representing 100% activity from intact enzyme reaction without compound perturbation.
Compounds with Activity% less than 40% were considered as inhibitors and subjected to a secondary screen inhibition validation, in which another background control (FC0), a simulated enzyme reaction with NAMPT and compound but no NAM, was introduced to eliminate the direct and/or indirect influence from compound. At this stage, the Activity% was calculated according to equation (2): […]

T1 sequence (P43490 whole entry): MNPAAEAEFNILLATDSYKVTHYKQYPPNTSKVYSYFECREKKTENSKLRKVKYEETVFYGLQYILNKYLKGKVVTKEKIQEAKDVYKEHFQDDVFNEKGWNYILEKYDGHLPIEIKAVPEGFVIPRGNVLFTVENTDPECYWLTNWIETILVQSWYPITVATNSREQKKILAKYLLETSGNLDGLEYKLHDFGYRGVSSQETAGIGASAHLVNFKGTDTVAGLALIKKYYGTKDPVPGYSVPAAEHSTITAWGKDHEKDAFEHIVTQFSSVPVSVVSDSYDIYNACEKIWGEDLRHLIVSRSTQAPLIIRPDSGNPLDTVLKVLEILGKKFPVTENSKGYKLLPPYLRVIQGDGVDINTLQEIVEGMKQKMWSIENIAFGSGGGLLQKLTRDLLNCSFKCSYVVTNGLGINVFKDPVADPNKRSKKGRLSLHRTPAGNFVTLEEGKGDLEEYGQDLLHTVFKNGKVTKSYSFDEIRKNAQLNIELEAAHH

| Compound | NAMPT inhibition activity at 20 μM |
| --- | --- |
| O=C(NCc1ccc(Cl)cc1)NCc1noc2ccccc12 [E567-0228] | No (showed no NAMPT inhibition activity at 20 μM (NAMPT activity ≥40%)) |
| Cc1cc(C)c(NC(=O)C(C)n2nc(C)c3sc4ccccc4c3c2=O)c(C)c1 (stereo not shown) [E019-0435] | No (showed no NAMPT inhibition activity at 20 μM (NAMPT activity ≥40%)) |
| COc1ccc(CNC(=O)c2ccc(Cn3c(=O)c4cccn4c4cccnc43)cc2)c(OC)c1 [E524-1754] | No (showed no NAMPT inhibition activity at 20 μM (NAMPT activity ≥40%)) |
| COc1cccc(CNC(=O)CCCn2c(=O)c3cccn3c3cccnc32)c1OC [E524-1489] | No (showed no NAMPT inhibition activity at 20 μM (NAMPT activity ≥40%)) |
| CCOc1ccc(CCNC(=O)CCCn2c(=O)c3cccn3c3cccnc32)cc1 [E524-1469] | No (showed no NAMPT inhibition activity at 20 μM (NAMPT activity ≥40%)) |
| COc1ccc(Cl)cc1NC(=O)CCCn1c(=O)c2cccn2c2cccnc21 [E524-1372] | No (showed no NAMPT inhibition activity at 20 μM (NAMPT activity ≥40%)) |
| COc1ccc(CCNC(=O)c2ccc(Cn3c(=O)c4cccn4c4cccnc43)cc2)cc1OC [E524-1586] | No (showed no NAMPT inhibition activity at 20 μM (NAMPT activity ≥40%)) |
| COc1ccc(CNC(=O)Cn2c(=O)c3cccn3c3cccnc32)cc1 [E524-0113] | No (showed no NAMPT inhibition activity at 20 μM (NAMPT activity ≥40%)) |
| Cc1ccccc1OCc1ccc(-c2nc(C#N)c(NCc3cccnc3)o2)o1 [D301-0303] | No (showed no NAMPT inhibition activity at 20 μM (NAMPT activity ≥40%)) |
| COc1cc(OC)c(NC(=O)CCCn2nc(C)c3sc4ccccc4c3c2=O)cc1Cl [E019-0951] | No (showed no NAMPT inhibition activity at 20 μM (NAMPT activity ≥40%)) |
| CCOc1ccc(CCNC(=O)c2ccc(Cn3c(=O)c4cccn4c4cccnc43)cc2)cc1 [E524-1767] | No (showed no NAMPT inhibition activity at 20 μM (NAMPT activity ≥40%)) |
| COc1ccc(OC)c(CCNC(=O)CCCn2c(=O)c3cccn3c3cccnc32)c1 [E524-1470] | No (showed no NAMPT inhibition activity at 20 μM (NAMPT activity ≥40%)) |
| Cc1ccccc1CNC(=O)Cn1c(=O)c2cccn2c2cccnc21 [E524-0298] | No (showed no NAMPT inhibition activity at 20 μM (NAMPT activity ≥40%)) |
| Cc1cccc(OCc2ccc(-c3nc(C#N)c(NCc4cccnc4)o3)o2)c1 [D301-0252] | No (showed no NAMPT inhibition activity at 20 μM (NAMPT activity ≥40%)) |
| CC(C)NC(=O)c1ccc(Cn2c(=O)c3cccn3c3cccnc32)cc1 [E524-1612] | No (showed no NAMPT inhibition activity at 20 μM (NAMPT activity ≥40%)) |
| Cc1ccc(Cl)cc1NC(=O)CCCn1c(=O)c2cccn2c2cccnc21 [E524-1295] | No (showed no NAMPT inhibition activity at 20 μM (NAMPT activity ≥40%)) |
| O=C(Cn1c(=O)c2cccn2c2cccnc21)NCc1cccc(F)c1 [E524-0302] | No (showed no NAMPT inhibition activity at 20 μM (NAMPT activity ≥40%)) |
| Cc1cn2c(=O)cc(COC(=O)c3cccc(NC(=O)C(C)Oc4ccccc4)c3)nc2s1 (stereo not shown) [G357-2118] | No (showed no NAMPT inhibition activity at 20 μM (NAMPT activity ≥40%)) |
| Cc1ccc2onc(CNC(=O)Nc3ccccc3C#N)c2c1 [E569-0217] | No (showed no NAMPT inhibition activity at 20 μM (NAMPT activity ≥40%)) |
| Cc1ccc(OCc2ccc(-c3nc(C#N)c(NCc4cccnc4)o3)o2)cc1 [D301-0100] | No (showed no NAMPT inhibition activity at 20 μM (NAMPT activity ≥40%)) |

| Compound | NAMPT inhibition activity at 20 μM |
| --- | --- |
| O=C(NCc1ccccc1Cl)c1ccc(Cn2c(=O)c3cccn3c3cccnc32)cc1 [E524-1573] | Yes |
| COc1ccc(Br)cc1CNC(=O)CCCn1c(=O)c2cccn2c2cccnc21 [E524-1499] | No (showed no NAMPT inhibition activity at 20 μM (NAMPT activity ≥40%)) |
| O=C(Cn1c(=O)c2cccn2c2cccnc21)NCc1ccccc1F [E524-0299] | No (showed no NAMPT inhibition activity at 20 μM (NAMPT activity ≥40%)) |
| O=C(COc1ccc(F)cc1)Nc1ccccc1C(=O)OCc1cc(=O)n2ccsc2n1 [G357-1695] | No (showed no NAMPT inhibition activity at 20 μM (NAMPT activity ≥40%)) |
| CCCNC(=O)c1ccc(Cn2c(=O)c3cccn3c3cccnc32)cc1 [E524-1613] | No (showed no NAMPT inhibition activity at 20 μM (NAMPT activity ≥40%)) |
| COc1ccc(OC)c(CNC(=O)NCc2noc3ccc(C)cc23)c1 [E569-0193] | No (showed no NAMPT inhibition activity at 20 μM (NAMPT activity ≥40%)) |
| CCC(C)NC(=O)c1ccc(Cn2c(=O)c3cccn3c3cccnc32)cc1 (stereo not shown) [E524-1568] | No (showed no NAMPT inhibition activity at 20 μM (NAMPT activity ≥40%)) |
| Cc1ccc2c(=O)cc(CSc3nnc(-c4ccccc4)n3C)[nH]c2c1C [G751-0753] | No (showed no NAMPT inhibition activity at 20 μM (NAMPT activity ≥40%)) |
| CCOCCCNC(=O)c1ccc(Cn2c(=O)c3cccn3c3cccnc32)cc1 [E524-1662] | No (showed no NAMPT inhibition activity at 20 μM (NAMPT activity ≥40%)) |
| CC(=O)c1cccc(NC(=O)Cc2noc3ccccc23)c1 [E207-0513] | No (showed no NAMPT inhibition activity at 20 μM (NAMPT activity ≥40%)) |
| Cc1nn(CCCC(=O)Nc2ccccc2C(F)(F)F)c(=O)c2c1sc1ccccc12 [E019-0923] | No (showed no NAMPT inhibition activity at 20 μM (NAMPT activity ≥40%)) |
| Cc1c(Cl)cccc1NC(=O)Cn1nc(C)c2sc3ccccc3c2c1=O [E019-0120] | No (showed no NAMPT inhibition activity at 20 μM (NAMPT activity ≥40%)) |
| Cc1ccc(NC(=O)CCCn2c(=O)c3cccn3c3cccnc32)c(Cl)c1 [E524-1338] | No (showed no NAMPT inhibition activity at 20 μM (NAMPT activity ≥40%)) |
| CC(C)OCCCNC(=O)c1ccc(Cn2c(=O)c3cccn3c3cccnc32)cc1 [E524-1673] | No (showed no NAMPT inhibition activity at 20 μM (NAMPT activity ≥40%)) |
| COc1ccc(OC)c(CNC(=O)CCCn2c(=O)c3cccn3c3cccnc32)c1 [C799-0387] | No (showed no NAMPT inhibition activity at 20 μM (NAMPT activity ≥40%)) |
| COc1ccc(Cl)cc1NC(=O)NCc1noc2ccccc12 [E567-0019] | No (showed no NAMPT inhibition activity at 20 μM (NAMPT activity ≥40%)) |
| CN(C)CCNC(=O)c1ccc(Cn2c(=O)c3cccn3c3cccnc32)cc1 [E524-1589] | No (showed no NAMPT inhibition activity at 20 μM (NAMPT activity ≥40%)) |
| Cc1ccccc1CNC(=O)CCCn1nc(C)c2sc3ccccc3c2c1=O [E019-1139] | No (showed no NAMPT inhibition activity at 20 μM (NAMPT activity ≥40%)) |
| CCOc1ccccc1NC(=O)NCc1noc2ccc(C)cc12 [E569-0079] | No (showed no NAMPT inhibition activity at 20 μM (NAMPT activity ≥40%)) |
| CN(C)c1ccc(CNC(=O)c2ccc(Cn3c(=O)c4cccn4c4cccnc43)cc2)cc1 [E524-1758] | No (showed no NAMPT inhibition activity at 20 μM (NAMPT activity ≥40%)) |
